Laboratory results from patent US20210368825A1, “FEED ADDITIVE FOR DAIRY CATTLE COMPRISING N-ACETYL-L-TRYPTOPHAN AS ACTIVE INGREDIENT” (CJ CHEILJEDANG CORPORATION, priority 2018, published 2021).
Where “and” joins values, the source holds several entries; their conditions need not be identical. Equal entries are not always repeated. Entries after “also recorded” stand apart in the source; their conditions may differ.

How the values were obtained:
[1] = test system: calves born from dairy cattle; assay: Change in hematological properties of calves born from dairy cattle according to NALT feeding; assay type: in vivo, Holstein Friesian cows (calves)
Excerpt: (§1) From among Holstein Friesian cows in the late stage of gestation corresponding to 60 days before calving, 8 cows were selected in consideration of calving time (expected calving date±15 days), the number of calving (calving number), and the like, and 4 cows were assigned to each of a control (untreated) and a treated group.
(§2) In the present disclosure, as a basal diet fed during a dry period and a milking period, total mixed ration (TMR), roughage, and concentrates were provided in accordance with NRC (2001) nutrition requirements for dry cows. In the case of the treated group, evaluation was performed by supplementing N-acetyl-L-tryptophan (NALT) to the basal diet. Newborn calves were fed with colostrum for 3 days and then fed with milk obtained during a milking process for 8 weeks.
(§3) Evaluation of feed feeding before calving by feeding N-acetyl-L-tryptophan was performed for 60±8 days (error caused by difference in expected calving dates). The control was fed with the basal diet, and the treated group was fed with the basal diet supplemented with 15 g of NALT.
(§4) Blood was collected from dairy cattle and calves during 6 weeks of the dry period and immediately after calving via the jugular vein before feeding a morning feed every 2 weeks for 8 weeks. The collected blood was aliquoted into a serum tube (BD Vacutainer, Plymouth, UK) and a heparin tube (Becton-Dickinson, Belliver Industrial Estate, Plymouth, PL6 7BP, UK) and centrifuged (3,500 rpm, 15 min, 20° C.) to separate plasma.
(§5) Blood samples for analysis of changes in hematological properties such as white blood cells (WBC), lymphocytes, monocytes, granulocytes, mean corpuscular volume, mean corpuscular hemoglobin, and platelets were aliquoted into an ethylenediaminetetraacetic acid (EDTA)-treated vacutainer (Becton-Dickinson, Franklin Lakes, N.J., USA) and analyzed using a VetScan HM2 Hematology System (ABAXIS, Calif., USA).

[2] = test system: calves born from dairy cattle; assay: Metabolic change of calves born from dairy cattle according to NALT feeding; assay type: in vivo, Holstein Friesian cows (calves)
Excerpt: as §1, §2, §3, §4
Samples for analysis of metabolic changes such as albumin, glutamic-oxalacetic transaminase (GOT), blood urea nitrogen (BUN), triglycerides (TG), cholesterol (CHO), glucose (GLU), and non-esterified fatty acid (NEFA) were aliquoted into a 1.5 mL tube (Eppendorf AG, Hamburg, Germany) in an amount of 500 μL each and stored in a deep freezer at −80° C.

[3] = test system: milking cows after calving; assay: Analysis of milk yield of dairy cattle after calving according to NALT feeding; assay type: in vivo, Holstein Friesian cows
Excerpt: as §1, §2, §3
Milk yield of each of the 8 milking cows used in the present disclosure was recorded at 3 a.m. and 3 p.m. every day for 8 weeks, and average milk yield was calculated after pooling them every two weeks after calving.

[4] = test system: dry cows in the late stage of gestation; assay: Analysis of feed intake of dairy cattle according to NALT feeding; assay type: in vivo, Holstein Friesian cows; details: for feed intake: basal diet supplemented with NALT (15 g/d)
Excerpt: as §1, §2, §3
An amount of the feed left over was recorded for each cow at 9 a.m. every morning to measure a daily feed intake.

[5] = test system: dairy cattle in dry period; assay: Change in hematological properties of dairy cattle in dry period according to NALT feeding; assay type: in vivo, Holstein Friesian cows
Excerpt: as §1, §2, §3, §4, §5

[6] = test system: dairy cattle after calving; assay: Change in hematological properties of dairy cattle after calving according to NALT feeding; assay type: in vivo, Holstein Friesian cows
Excerpt: as §1, §2, §3, §4, §5

[7] = test system: calves born from dairy cattle; assay: Analysis of weight of calf born from dairy cattle according to NALT feeding; assay type: in vivo, Holstein Friesian cows (calves); details: for weight of calf: mother fed NALT 15 g/d in dry period
Excerpt: as §1, §2, §3
Weights of calves born from dairy cattle used for the experiment were measured after drying the body surface immediately after calving (before feeding colostrum; using a scale, GL-6000S Series, G-Tech International Co., LTD), and then weights were measured four times in total for 8 weeks at an interval of 2 weeks (weight before feeding milk). Colostrum was obtained from mother cows and fed to calves at 3 a.m. and 3 p.m. until 3 days after calving. Then, 3.8 L of milk was provided per day, and the concentrates were available without limitation from a feed bucket separately for individual animals.

[8] = calves born from NALT-treated dairy cattle

Structure (SMILES): CC(=O)N[C@@H](Cc1c[nH]c2ccccc12)C(=O)O [NALT, N-acetyl-L-tryptophan]
- initial index of mean corpuscular hemoglobin (MCH) of newborn calves compared with control [1, 8]: statistically significant difference
- initial index of mean corpuscular volume (MCV) of newborn calves compared with control [1, 8]: statistically significant difference
- monocyte index of newborn calves compared with control [1, 8]: significant differences
- Monocyte ([1]; calves, 0 wk, reference 0-0.84): 0.32 K/uL
- Granulocyte ([1]; calves, 0 wk, reference 0.6-6.7): 9.68 K/uL
- Lymphocyte ([1]; calves, 0 wk, reference 2.5-7.5): 3.72 K/uL
- WBC ([1]; calves, 0 wk, reference 4-12): 13.72 K/uL
- MCH ([1]; calves, 0 wk, reference 11-17, P 0.056): 12.95 pg
- MCV ([1]; calves, 0 wk, reference 40-60, P 0.027): 39.00 fL
- Platelet ([1]; calves, 0 wk, reference 100-800): 512.75 K/ul
- Monocyte, total AVG ([1]; calves, average 0 to 8 weeks, reference 0-0.84, P 0.031): 0.53 K/uL
- Granulocyte, total AVG ([1]; calves, average 0 to 8 weeks, reference 0.6-6.7): 4.69 K/uL
- Lymphocyte, total AVG ([1]; calves, average 0 to 8 weeks, reference 2.5-7.5): 6.93 K/uL
- WBC, total AVG ([1]; calves, average 0 to 8 weeks, reference 4-12): 12.14 K/uL
- MCH, total AVG ([1]; calves, average 0 to 8 weeks, reference 11-17): 11.20 pg
- MCV, total AVG ([1]; calves, average 0 to 8 weeks, reference 40-60): 31.80 fL
- Platelet, total AVG ([1]; calves, average 0 to 8 weeks, reference 100-800): 584.35 K/ul
- immune response of the calves born from dairy cattle ([1]; conclusion drawn from hematology of calves): positive effects
- glucose (Glu) index of newborn calves compared with control ([2]; calves of the NALT-treated group, 8 weeks after birth): statistically significant difference; also recorded: decreasing a blood glucose level
- Albumin ([2]; calves, 0 wk): 2.50 g/dL
- BUN ([2]; calves, 0 wk): 10.00 mg/dL
- CHO ([2]; calves, 0 wk): 33.00 mg/dL
- GLU ([2]; calves, 0 wk): 54.75 mg/dL
- GOT ([2]; calves, 0 wk): 47.25 U/L
- TG ([2]; calves, 0 wk): 14.50 mg/dL
- Albumin, total AVG ([2]; calves, average 0 to 8 weeks): 3.36 g/dL
- BUN, total AVG ([2]; calves, average 0 to 8 weeks): 11.30 mg/dL
- CHO, total AVG ([2]; calves, average 0 to 8 weeks): 109.30 mg/dL
- GOT, total AVG ([2]; calves, average 0 to 8 weeks): 62.55 U/L
- TG, total AVG ([2]; calves, average 0 to 8 weeks): 34.40 mg/dL
- GLU, total AVG ([2]; calves, average 0 to 8 weeks, P 0.015): 78.95 mg/dL
- Milk yield ([3]; 0 wk (immediately after calving)): 24.03 kg
- increase in average milk yield compared with control ([3]; 8 weeks after calving): ≥ 4 kg
- Milk yield, total AVG ([3]; average over 8 weeks after calving): 35.44 kg
- overall feed intake compared with control ([4]; 6 weeks of dry period): numerical increase; also recorded: numerically increased
- feed intake ([4]; week 0 of dry period): 6.63 kg
- feed intake ([4]; week 1 of dry period): 6.85 kg
- feed intake compared with control ([4]; week 2, p<0.05): statistically significant increase
- feed intake ([4]; week 2 of dry period): 7.73 kg
- feed intake ([4]; week 3 of dry period): 7.62 kg
- increase in feed intake compared with control ([4]; week 4, control 6.46 kg): 1.43 kg
- feed intake ([4]; week 4 of dry period): 7.69 kg
- feed intake ([4]; week 5 of dry period): 7.63 kg
- Monocyte ([5]; dry period, 0 wk, reference 0-0.84): 0.48 K/uL
- Granulocyte ([5]; dry period, 0 wk, reference 0.6-6.7): 3.89 K/uL
- Lymphocyte ([5]; dry period, 0 wk, reference 2.5-7.5): 7.68 K/uL
- WBC ([5]; dry period, 0 wk, reference 4-12): 10.45 K/uL
- MCH ([5]; dry period, 0 wk, reference 11-17): 16.01 pg
- MCV ([5]; dry period, 0 wk, reference 40-60): 46.75 fL
- Platelet ([5]; dry period, 0 wk, reference 100-800): 297.67 K/ul
- Monocyte, total AVG ([5]; dry period, average 0 to 6 weeks, reference 0-0.84): 0.74 K/uL
- Granulocyte, total AVG ([5]; dry period, average 0 to 6 weeks, reference 0.6-6.7): 3.29 K/uL
- Lymphocyte, total AVG ([5]; dry period, average 0 to 6 weeks, reference 2.5-7.5): 7.88 K/uL
- WBC, total AVG ([5]; dry period, average 0 to 6 weeks, reference 4-12): 11.91 K/uL
- MCH, total AVG ([5]; dry period, average 0 to 6 weeks, reference 11-17): 16.74 pg
- MCV, total AVG ([5]; dry period, average 0 to 6 weeks, reference 40-60): 47.54 fL
- Platelet, total AVG ([5]; dry period, average 0 to 6 weeks, reference 100-800): 331.35 K/ul
- effect on hematological properties of dairy cattle compared with control ([5]; during the dry period): did not significantly affect
- effect on hematological properties of dairy cattle compared with control [6]: did not significantly affect
- Monocyte ([6]; 0 wk, reference 0-0.84): 0.92 K/uL
- Granulocyte ([6]; 0 wk, reference 0.6-6.7): 6.41 K/uL
- Lymphocyte ([6]; 0 wk, reference 2.5-7.5): 7.99 K/uL
- WBC ([6]; 0 wk, reference 4-12): 15.32 K/uL
- MCH ([6]; 0 wk, reference 11-17): 16.80 pg
- MCV ([6]; 0 wk, reference 40-60): 47.00 fL
- Platelet ([6]; 0 wk, reference 100-800): 348.75 K/ul
- Monocyte, total AVG ([6]; average 0 to 8 weeks, reference 0-0.84): 0.91 K/uL
- Granulocyte, total AVG ([6]; average 0 to 8 weeks, reference 0.6-6.7): 5.18 K/uL
- Lymphocyte, total AVG ([6]; average 0 to 8 weeks, reference 2.5-7.5): 7.86 K/uL
- WBC, total AVG ([6]; average 0 to 8 weeks, reference 4-12): 13.95 K/uL
- MCH, total AVG ([6]; average 0 to 8 weeks, reference 11-17): 16.60 pg
- MCV, total AVG ([6]; average 0 to 8 weeks, reference 40-60): 46.55 fL
- Platelet, total AVG ([6]; average 0 to 8 weeks, reference 100-800): 480.51 K/ul
- weight of calf, Increment ([7]; 0 to 8 wk): 28.28 kg
- weight of calf ([7]; 0 wk (birth weight)): 41.43 kg
- weight of calf ([7]; 2 wk after birth): 46.05 kg
- weight of calf ([7]; 4 wk after birth): 52.75 kg
- weight of calf ([7]; 6 wk after birth): 60.95 kg
- weight of calf ([7]; 8 wk after birth): 69.70 kg
- weight of calf, total AVG ([7]; average 0 to 8 wk): 54.18 kg
- birth weight of calves greater than control ([7]; week 0, on average): 5.47 kg and 5.53 kg
- average weight of calves greater than control ([7]; week 2): 5.1 kg
- average weight of calves greater than control ([7]; week 4): 4.67 kg
- average weight of calves greater than control ([7]; week 6): 4.22 kg
- average weight of calves greater than control ([7]; week 8): 5.9 kg
- average weight of calves greater than control ([7]; weeks 2, 4, 6 and 8 overall): about 5 kg
